Biological target: WT STING (Homo sapiens, UniProt Q86WV6, H232R)
Assay: Digitonin assay using 293T wtSTING-FL reporter cells
Format: cell-based
Parameters: host or cells: 293T (ATCC CRL-3216), stably transfected
Details: 293T wtSTING-FL cells, digitonin buffer 30 min, then 5 h, ISRE firefly luciferase reporter
From the text: […] […] (SEQ ID NO:2) containing four interferon-sensitive response elements (ISRE) were synthesized by Sigma Aldrich (Czech Republic, Prague). The oligonucleotides were mixed in equal molar amounts, hybridized, and cleaved by restriction endonucleases HindIII (cat. #.R0104S, NEB, Ipswich, USA) and BglII (cat. #R0144S, NEB, Ipswich, USA). Ultimately, they were ligated into plasmid pGL4.27 (cat. #E6651, Promega, Madison, USA) linearized with the same enzymes. As result the sequence with four ISRE sites was placed upstream of the minimum promoter of firefly luciferase reporter gene.
293T cells (cat. #CRL-3216, ATCC, Manassas, USA) were seeded a day before transfection at density 125,000 cells per cm^2 onto poly-D-lysine (cat. #P6407, Sigma Aldrich, Czech Republic) coated six well plates in antibiotic free DMEM with high glucose (cat. #D5796, Sigma Aldrich, Czech Republic) supplemented with 10% heat inactivated FBS (cat. #S1520, Biowest, Riverside, USA). On the day of transfection, 2.5 μg of the plasmid pUNO1-hSTING-WT (cat. #punol-hstingwt, InvivoGen, San Diego, USA,) encoding human wild type STING (WT STING) was diluted in 125 μL OptiMEM medium (cat. #31985062, ThermoFisher, Waltham, USA) and mixed with 125 μL of the same medium containing 12.5 μL of Lipofectamine 2000 (cat. #11668019, ThermoFisher, Waltham, USA). After 5 minutes incubation at room temperature (RT), 250 μL of the mixture was added dropwise to the cells in one well. Cells were incubated 36 hours at 37° C. with 5% CO2, and then detached with 0.05% Trypsin and 0.22 g/L EDTA (both cat. #L0941, Biowest, Riverside, USA).
Transfected cells were seeded onto poly-D-lysine coated six well plates at density 50,000 cells per 1 cm^2 in DMEM medium with high glucose containing 10% heat inactivated FBS, 30 μg/mL blasticidin (cat. #ant-b1-05, InvivoGen, San Diego, USA), 0.06 mg/ml Penicillin G and 0.1 mg/ml Streptomycin Sulfate (both cat. #. L0018, Biowest, Riverside, USA). The medium was replenished every 3-4 days until visible colonies of cells resistant to blasticidin were formed.
Blasticidin resistant cells stably expressing WT STING were further transfected with […] plasmid following the same procedure as described above. The transfected cells were selected for the resistance to 300 μg/mL hygromycin (cat. #. 10687010, ThermoFisher, Waltham, USA) in DMEM with high glucose containing 10% heat inactivated FBS, 30μg/mL blasticidin, 0.06 mg/ml Penicillin G and 0.1 mg/ml Streptomycin Sulfate. Homogeneous culture of stably double transfected cells was prepared by limiting dilution of cells in 96 well plates and wells with cells were selected that originated from a single cell. These cells were expanded, and expression of WT STING was confirmed by western blot using monoclonal mouse anti STING antibodies (cat. #. MAB7169, 1:1000 dilution; […]. Genomic DNA from the transfected cells was amplified with primers pUNO1_Seq_F ([…]) (SEQ ID NO:3) and pUNO1_Seq_R ([…]) (SEQ ID NO:4) that were complementary to pUNO1 plasmid and the presence of WT STING gene in the transfected cells was confirmed by DNA sequencing.
293T wtSTING-FL cells were seeded at density of 250,000 cells per cm^2 onto 96 well poly-D-lysine coated plates in 100 μl DMEM with high glucose supplemented with 10% heat inactivated FBS. The medium was removed next day and three fold serial dilutions of compounds in Digitonin buffer containing 50 mmol·l^−1 HEPES (cat. #H3375, Sigma Aldrich, Czech Republic) pH 7.0, 100 mmol·l^−1 KCl, 3 mmol·l^−1 MgCl2, 0.1 mmol.·l^−1 DTT (cat. #D0632, Sigma Aldrich, Czech Republic), 85 mmol·l^−1 Sucrose (cat. #S7903, Sigma Aldrich, Czech Republic), 0.2% BSA (cat. #A2153, Sigma Aldrich, Czech Republic), 1 mmol·l^−1 ATP (cat. #A1852, Sigma Aldrich, Czech Republic), 0.1 mmol·l^−1 GTP (cat. #G8877, Sigma Aldrich, Czech Republic), and 10 μg/mL Digitonin A (cat. #D141, Sigma Aldrich, Czech Republic) were added to the cells. […]

Sequence of WT STING (Q86WV6 whole entry H232R): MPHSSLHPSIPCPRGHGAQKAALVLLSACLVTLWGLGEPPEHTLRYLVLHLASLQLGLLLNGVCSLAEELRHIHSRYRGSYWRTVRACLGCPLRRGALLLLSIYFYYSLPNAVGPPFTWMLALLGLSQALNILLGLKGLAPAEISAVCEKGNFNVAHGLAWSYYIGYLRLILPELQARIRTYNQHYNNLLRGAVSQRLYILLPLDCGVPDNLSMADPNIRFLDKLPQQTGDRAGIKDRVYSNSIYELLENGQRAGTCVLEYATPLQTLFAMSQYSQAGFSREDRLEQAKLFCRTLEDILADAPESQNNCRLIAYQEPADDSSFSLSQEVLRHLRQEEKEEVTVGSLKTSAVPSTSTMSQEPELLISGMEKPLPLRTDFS

| Compound | EC50 [nM] |
| --- | --- |
| Nc1nc2c(ncn2[C@@H]2CO[C@@H]3COP(=O)(O)O[C@H]4[C@@H](F)[C@H](n5cnc6c(N)ncnc65)O[C@@H]4COP(=O)(O)O[C@@H]23)c(=O)[nH]1 [Compound 51, (1S,6R,8R,9R,10R,15R,18R)-18-(2-amino-6-oxo-6,9-dihydro-1H-purin-9-yl)-8-(6-amino-9H-purin-9-yl)-9-fluoro-3,12-dihydroxy-2,4,7,11,13,16-hexaoxa-3λ^5,12λ^5-diphosphatricyclo[13.3.0.0^6,10]octadecane-3,12-dione] | 80 |
| Nc1nc2c(ncn2[C@@H]2O[C@@H]3COP(=O)(O)O[C@H]4[C@H](n5cnc6c(N)ncnc65)CO[C@@H]4COP(=O)(O)O[C@H]3[C@H]2F)c(=O)[nH]1 [Compound 24, (1S,6R,8R,9R,10R,15R,18R)-8-(2-amino-6-oxo-6,9-dihydro-1H-purin-9-yl)-18-(6-amino-9H-purin-9-yl)-9-fluoro-3,12-dihydroxy-2,4,7,11,13,16-hexaoxa-3λ^5,12λ^5-diphosphatricyclo[13.3.0.0^6,10]octadecane-3,12-dione] | 30 |
| Nc1ncnc2c1ncn2[C@@H]1CO[C@@H]2COP(=O)(S)O[C@H]3[C@@H](F)[C@H](n4cnc5c(N)ncnc54)O[C@@H]3COP(=O)(S)O[C@@H]12 (stereo partly drawn) [Compound 55, (1S,6R,8R,9R,10R,15R,18R)-8,18-bis(6-amino-9H-purin-9-yl)-9-fluoro-3,12-disulfanyl-2,4,7,11,13,16-hexaoxa-3λ^5,12λ^5-diphosphatricyclo[13.3.0.0^6,10]octadecane-3,12-dione] | 10 |
| Nc1nc2c(ncn2[C@@H]2CO[C@@H]3COP(=O)(O)O[C@H]4C[C@H](n5cnc6c(N)ncnc65)O[C@@H]4COP(=O)(O)O[C@@H]23)c(=O)[nH]1 [Compound 53, (1S,6R,8R,10S,15R,18R)-18-(2-amino-6-oxo-6,9-dihydro-1H-purin-9-yl)-8-(6-amino-9H-purin-9-yl)-3,12-dihydroxy-2,4,7,11,13,16-hexaoxa-3λ^5,12λ^5-diphosphatricyclo[13.3.0.0^6,10]octadecane-3,12-dione] | 280 |
| Nc1nc2c(ncn2[C@@H]2CO[C@@H]3COP(=O)(O)O[C@H]4[C@H](n5cnc6c(N)ncnc65)CO[C@@H]4COP(=O)(O)O[C@@H]23)c(=O)[nH]1 [Compound 52, (1S,6R,9R,10S,15R,18R)-9-(2-amino-6-oxo-6,9-dihydro-1H-purin-9-yl)-18-(6-amino-9H-purin-9-yl)-3,12-dihydroxy-2,4,7,11,13,16-hexaoxa-3λ^5,12λ^5-diphosphatricyclo[13.3.0.0^6,10]octadecane-3,12-dione] | 1350 |
| Nc1ncnc2c1ncn2[C@@H]1CO[C@@H]2COP(=O)(S)O[C@H]3[C@@H](F)[C@H](n4cnc5c(N)ncnc54)O[C@@H]3COP(=O)(S)O[C@@H]12 (stereo partly drawn) [Compound 54, (1S,6R,8R,9R,10R,15R,18R)-8,18-bis(6-amino-9H-purin-9-yl)-9-fluoro-3,12-disulfanyl-2,4,7,11,13,16-hexaoxa-3λ^5,12λ^5-diphosphatricyclo[13.3.0.0^6,10]octadecane-3,12-dione] | 10 |

Next, values leading:

| EC50 [nM] | Compound |
| --- | --- |
| 20 | Nc1ncnc2c1ncn2[C@@H]1CO[C@@H]2COP(=O)(O)O[C@H]3[C@@H](F)[C@H](n4cnc5c(N)ncnc54)O[C@@H]3COP(=O)(O)O[C@@H]12 [Compound 28, (1S,6R,8R,9R,10R,15R,18R)-8,18-bis(6-amino-9H-purin-9-yl)-9-fluoro-3,12-dihydroxy-2,4,7,11,13,16-hexaoxa-3λ^5,12λ^5-diphosphatricyclo[13.3.0.0^6,10]octadecane-3,12-dione] |
| 450 | Nc1ncnc2c1ncn2[C@@H]1CC[C@@H]2COP(=O)(O)O[C@H]3[C@@H](F)[C@H](n4cnc5c(N)ncnc54)O[C@@H]3COP(=O)(O)O[C@H]21 [Compound 34, (1R,6R,8R,9R,10R,15R,18R)-8,18-bis(6-amino-9H-purin-9-yl)-9-fluoro-3,12-dihydroxy-2,4,7,11,13-pentaoxa-3λ^5,12λ^5-diphosphatricyclo[13.3.0.0^6,10]octadecane-3,12-dione] |
| 280 | Nc1ncnc2c1ncn2[C@@H]1CO[C@@H]2COP(=O)(O)O[C@H]3C[C@H](n4cnc5c(N)ncnc54)O[C@@H]3COP(=O)(O)O[C@@H]12 [Compound 50, (1S,6R,8R,10S,15R,18R)-8,18-bis(6-amino-9H-purin-9-yl)-3,12-dihydroxy-2,4,7,11,13,16-hexaoxa-3λ^5,12λ^5-diphosphatricyclo[13.3.0.0^6,10]octadecane-3,12-dione] |
